One assay concerns the target Mtb Lpd R347S (Mycobacterium tuberculosis, UniProt P9WHH9, R347S).
A further assay concerns the target Mtb Lpd A181V (Mycobacterium tuberculosis, UniProt P9WHH9, A181V). The following applies: 100 µM.

As to `COc1ccc(C(=O)N2CCC3(CC2)C(=O)N(CC(=O)NCCc2ccc(Cl)cc2Cl)CN3c2ccccc2)c(OC)c1` [compound 5, N-(2,4-dichlorophenethyl)-2-(8-(2,4-dimethoxybenzoyl)-4-oxo-1-phenyl-1,3,8-triazaspiro[4.5]decan-3-yl)acetamide], at Mtb Lpd R347S, the “Decrease in potency, R347S vs wild-type” value is “more than 100 fold”. For the same compound, the “Inhibition of A181V Mtb Lpd” value at Mtb Lpd A181V stood at 10%.

For the origin of these results see publication PMC2827632 (Biochemistry, 2010).
